# Results as given in EP2929785A1, “A PLA inhibitor for inhibition of fat absorption” (PAT GmbH, priority 2014, dated 2015).
# pIC50: −log10 of the molar value. Peptide text beside a SMILES is read from it. * marks the point of attachment. Cbz = O=C(OCc1ccccc1)*
# What was measured:
# HepG2 cells [1] = assay: Fatty acid ([3H]oleate:albumin) influx in HepG2 cells; format: cell-based, human
# cytosolic LPC = assay: Cytosolic LPC concentration in HepG2 cells; format: cell-based, human; conditions: Homo sapiens, HepG2, 0.5 h; 30 min treatment (Fig. 7); read-out: suppression of cytosolic LPC (IC50)
# Experimental: LPC concentration in cytosolic supernatants was measured as previously described (Kishimoto T et al. Clin. Biochem. 2002; 35: 411-416).
# [2] = molecular target: T1, organic anion-transporting polypeptide 1 in HepG2 cells (Homo sapiens, UniProt P46721); conditions: uptake by HepG2 cells; Chamulitrat et al. 2009; read-out: half-maximal inhibitory concentration (IC50) for competition with UDCA-LPE uptake; cited from earlier work
# T1 construct: host or cells: HepG2 (endogenous)
# T1 sequence (P46721 1-670): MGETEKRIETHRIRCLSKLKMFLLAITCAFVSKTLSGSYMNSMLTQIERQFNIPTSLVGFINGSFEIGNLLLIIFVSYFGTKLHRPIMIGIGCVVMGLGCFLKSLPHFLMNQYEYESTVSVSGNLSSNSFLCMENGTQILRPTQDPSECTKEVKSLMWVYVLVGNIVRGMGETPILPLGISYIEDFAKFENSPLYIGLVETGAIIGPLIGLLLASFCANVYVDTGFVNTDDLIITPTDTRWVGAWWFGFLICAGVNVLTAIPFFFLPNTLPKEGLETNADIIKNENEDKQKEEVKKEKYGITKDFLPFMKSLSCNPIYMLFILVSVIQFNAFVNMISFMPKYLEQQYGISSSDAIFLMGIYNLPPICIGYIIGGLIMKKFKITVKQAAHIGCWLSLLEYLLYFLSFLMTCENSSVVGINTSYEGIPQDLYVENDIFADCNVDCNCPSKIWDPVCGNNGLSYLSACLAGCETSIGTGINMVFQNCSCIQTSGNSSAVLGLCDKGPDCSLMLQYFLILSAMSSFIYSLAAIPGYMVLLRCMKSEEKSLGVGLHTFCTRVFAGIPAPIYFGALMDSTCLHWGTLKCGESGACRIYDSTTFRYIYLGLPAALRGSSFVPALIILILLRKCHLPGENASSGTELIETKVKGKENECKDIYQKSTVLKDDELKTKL
# [3] = test system: transcripts of all complex subunits; assay: In vitro transcription in native HepG2 nuclear extracts exposed to LPC-conditioned delipidated cytosol; format: biochemical, human; conditions: delipidated cytosol incubated with LPC 1 h
# HepG2 cells [4] = assay: [3H]glucose influx in HepG2 cells; format: cell-based, human; conditions: at 10 mM glucose; MßCD
# [5] = test system: DRM-PM proteins iPLA2ß, CD36, FABPPM, caveolin1; assay: DRM-PM protein levels in HepG2 cells by semi-quantitative densitometry; format: cell-based, human; conditions: bafilomycin 50 nM, 16 h
compound,measurement,setting,value
"O=C1O/C(=C/Br)CCC1c1cccc2ccccc12 (stereo not shown) [BEL, bromoenol lactone, reference compound]",pIC50,"HepG2 cells [1]; Homo sapiens, HepG2, 1-h treatment with increasing concentrations (Fig. 2A), read-out: inhibition of fatty acid influx (IC50)",4.28
same,pIC50,cytosolic LPC,4.37
"C[C@H](CCC(=O)O)[C@H]1CC[C@H]2[C@@H]3[C@@H](O)C[C@@H]4C[C@H](O)CC[C@]4(C)[C@H]3CC[C@]12C [UDCA, ursodeoxycholic acid]",pIC50,[2],4.70
"O=C([O-])[C@H](O)[C@@H](O)[C@H](O)[C@H](O)CO.[Na+] [Na-gluconate, reference compound]",passive translocation component of fatty acid influx,HepG2 cells [1],inhibited to negligible levels
lysophosphatidylcholine [LPC],LPC concentration at which the transcripts of all complex subunits were downregulated,[3],5 µmol/mg protein
"methyl-beta-cyclodextrin [MßCD, reference compound]",additional reduction of fatty acid influx,HepG2 cells [1],60%
same,influx of [3H]glucose,HepG2 cells [4],135.70 ± 14.7 nmol/mg protein/min
CO/C1=C\C(C)=C\[C@@H](C)[C@@H](O)[C@@H](C)C/C(C)=C/C=C/[C@H](OC)[C@@H]([C@@H](C)[C@@H](O)[C@H](C)[C@@]2(O)C[C@@H](O)[C@H](C)[C@@H](C(C)C)O2)OC1=O [bafilomycin],fatty acid influx,"HepG2 cells [1]; bafilomycin 50 nM, 16 h, untreated 26.95 ± 2.4",33.33 ± 5.1 nmol/mg protein/min
same,increase in DRM-PM CD36,[5],40.85 ± 10.56%
same,increase in DRM-PM FABPPM,[5],25.99 ± 3.35%
same,increase in DRM-PM caveolin1,[5],60.76 ± 7.03%
same,increase in DRM-PM iPLA2ß,[5],51.56 ± 9.85%
"CC(C)C[C@@H](C=O)NC(=O)[C@H](CC(C)C)NC(=O)[C@H](CC(C)C)NC(=O)OCc1ccccc1 [MG132, reference compound] (Cbz-Leu-Leu-Leu-aldehyde)",effect on fatty acid uptake,HepG2 cells [1],no effect on uptake
